# Data reported in patent publication US20210170000A1, “Larval preparation of Heligmosomoides polygyrus bakeri as well as methods of making it and uses thereof” (Helmholtz Zentrum München Deutsches Forschungszentrum für …, priority 2018, published 2021).
# What was measured:
# human MDM = assay: HpbE- or Hpb GDH-treated human MDM with inhibitors or neutralizing antibodies; format: cell-based
# Source text: In order to identify immuneregulatory proteins present in HpbE, the inventors fractionated the extract by size exclusion chromatography and identified active fractions (8-11) based on the capacity to induce the COX metabolite TXB2 as well as IL-10 (FIGS. 4C and 4D). The inventors then identified proteins present in active and non-active fractions by mass spectrometry, thus highlighting Hpb glutamate dehydrogenase (GDH) as a major immuneregulatory candidate, which was uniquely present in active fractions of HpbE (summarized in FIG. 4E). In addition, an inhibitor of GDH (Bithionol), which is also used as an anti-helminthic, reduced the HpbE-triggered induction of PGE2 and IL-10 (FIG. 4F).
# As a new tool for studying the uptake, localization and function of Hpb GDH in vivo and in target cells in vitro, we generated monoclonal antibodies (mABs) specific for Hpb GDH (i.e. not cross-reactive with mammalian (human/mouse) GDH) (FIG. 5). Clone 4F8 was selected as the best candidate for further sub cloning and for testing in neutralization experiments. […]
# As HIF-1α is positively regulated by the p38 MAPK, the inventors studied the involvement of p38 signaling in the induction of type 2-suppressive mediators by HpbE. In human MDM, p38 was phosphorylated upon treatment with HpbE, correlating with the induction of COX-2 (FIG. 11A) and a p38 inhibitor (VX-702) abrogated the induction of IL-10, IL-1R and PGE2-synthetic enzymes (PTGS2 and PTGES) (FIG. 11B to D). In line with HIF-1α dependent regulation in murine BMDM, a pharmacological inhibitor of HIF-1α (acriflavine) attenuated the HpbE-induced expression of IL-10, IL-1β and COX pathway enzymes in human MDM (FIG. 11B to D). However, p38 and HIF-1α were not responsible for the modulation of the 5-LOX pathway (FIG. 11D).
# (§1) Monocyte-derived macrophages (MDM) or bone marrow derived macrophages (BMDM) were generated by culture in the presence of human or murine recombinant GM-CSF (10 ng/ml) (Miltenyi Biotech) and human recombinant TGF-β1 (2 ng/ml) (Peprotech) as previously described (Esser-von Bieren et al. (2013), PLoS Pathog., 9:e1003771; Dietz et al. (2016), J. Allergy Clin Immunol, 139(4):1343-1354.e6). On day 6, cells were harvested and used for further experiments.
# (§2) Eicosanoids were quantified by liquid chromatography tandem mass spectrometry (LC-MS/MS) similar to a previously published method (Henkel et al. (2018); Allergy, doi:10.1111/a11.13700). Cytokines were quantified using commercially available multiplex assays or ELISA kits according to the manufacturer's instructions.
# human granulocytes = assay: Granulocyte chemotaxis (trans-well) towards nasal polyp secretions; format: cell-based; details: for reduction of granulocyte chemotaxis in response to nasal polyp secretions: cells from AERD patients (n=6) and healthy controls (n=3), fluticasone propionate 1 μM, Montelukast 10 μM
# Procedure: Granulocyte recruitment (induced by chemokines or nasal polyp secretions) was assessed with or without pre-treatment with Hpb proteins by using trans-well assays. Migrated granulocytes were enumerated microscopically and by flow cytometry.
# PMN were resuspended to a concentration of 1×10^6 cells/ml in the presence of 100 ng/ml human GM-CSF (Miltenyi Biotech) and overnight stimulated with 10 μg/ml HpbE. When mentioned, PMN were pre-treated with 1 μM fluticasone propionate (Sigma-Aldrich), 10 μM montelukast (Cayman Chemical) or conditioned media from MDM stimulated overnight with 10 μg/ml Hpb extract+/−100 μM Indomethacin for 1 hour. PMN migration in response to nasal polyp secretions or a chemokine cocktail of 2 ng/ml RANTES, 20 ng/ml IL-8 (Miltenyi Biotech) and 2 ng/ml LTB4 (Cayman Chemical) was tested. Chemoattractants were placed in the lower wells of a chemotaxis plate (3 μm pore size; Corning). After mounting the transwell unit, […] PMN were added to the top of each well and migration was allowed for 3 hours at 37° C., 5% CO2. The number of cells migrating to the lower well was counted microscopically. In some experiments, manual counting was validated by flow cytometry.
# human granulocytes (PMN) = assay: Mediator production by human granulocytes (PMN); format: cell-based
# Procedure: (§3) Human polymorphonuclear leukocytes (PMN) or peripheral blood mononuclear cells (PBMC) were isolated from the peripheral blood from healthy controls or patients suffering from AERD using density gradient centrifugation. For some experiments, cells were further separated into monocytes (CD14^+), neutrophils (CD16^+) or eosinophils. CD14^+ monocytes were differentiated into macrophages by culture for 6-8 days in the presence of GM-CSF and TGFbl. In most experiments, cells were treated with Hpb proteins at a concentration of 10 μg protein/ml.
# (§4) Mediator analysis in cell supernatants (+/−Hpb proteins) was performed by immunoassay for individual mediators (e.g. LTs, PGE2 or IL-10) or LC-MS/MS or Multiplex cytokine analysis for overall mediator profiles.
# Hpb proteins (e.g., total somatic homogenate of Hpb L3 larvae) broadly modulate mediator profiles of human myeloid cells.
# as §2
# [1] = tested on: human monocyte derived macrophages (MDM); assay: Mediator (eicosanoid, cytokine) production by human monocyte derived macrophages; format: cell-based
# Procedure: as §3, §4
# In order to study the effect of Hpb proteins on human macrophages, human monocyte derived macrophages (MDM) were stimulated with A23187 after 16 hrs. treatment with helminth proteins (e.g., total somatic homogenate of Hpb L3 larvae).
# (§5) Human monocyte derived macrophages (MDM) were isolated, cultured and stimulated as described herein, e.g. in Example 3.
# (§6) Eicosanoids or cytokines were quantified by LC-MS/MS or immunoassays as described herein, e.g. in Example 3.
# as §1, §2
# MDM from AERD patients = assay: Eicosanoid production by MDM from AERD patients; format: cell-based, human
# Source text: To validate the efficacy of HpbE in a relevant therapeutic indication, the inventors generated MDM from AERD patients and studied the effects of HpbE and FP on the mediator output.
# as §5, §6
# [2] = purified recombinant His-tagged protein
compound,measurement,setting,value
CC(C)(C)c1ccc(S(=O)(=O)/C=C/C#N)cc1 [BAY 11-7085],"PGE2, IL-10 and IL-1β production as well as gene expression of PGE2-synthetic enzymes and IL-10","human MDM; HpbE-treated human MDM, inhibition of NFκβ, 5 μM",significantly reduced
Oc1c(Cl)cc(Cl)cc1Sc1cc(Cl)cc(Cl)c1O [Bithionol],HpbE-triggered induction of PGE2 and IL-10,"human MDM; inhibitor of GDH, 20 μM",reduced
CS(=O)(=O)c1ccc(-c2noc(C(F)(F)F)c2-c2ccccc2)cc1 [CAY10404],HpbE-triggered COX-2 expression,human MDM; COX inhibitors,reduced
same,suppression of the 5-LOX pathway,human MDM; COX inhibitors,remained largely unaffected
CC(C)(O)c1ccccc1CC[C@@H](SCC1(CC(=O)O)CC1)c1cccc(/C=C/c2ccc3ccc(Cl)cc3n2)c1 [Montelukast],reduction of granulocyte chemotaxis in response to nasal polyp secretions,human granulocytes,10%
NC(=O)c1ccc(N(C(N)=O)c2c(F)cccc2F)nc1-c1ccc(F)cc1F [VX-702],"induction of IL-10, IL-1R and PGE2-synthetic enzymes (PTGS2 and PTGES)",human MDM; p38 inhibitor,abrogated
CCC(=O)O[C@]1(C(=O)SCF)[C@H](C)C[C@H]2[C@@H]3C[C@H](F)C4=CC(=O)C=C[C@]4(C)[C@@]3(F)[C@@H](O)C[C@@]21C [fluticasone propionate],pro-inflammatory arachidonic acid (AA) and linoleic acid (LA) metabolites,human granulocytes (PMN),reduce
same,eicosanoid output in MDM from healthy individuals,[1]; weak induction of PGE2,only minor effects
same,reduction of granulocyte chemotaxis in response to nasal polyp secretions,human granulocytes,failed to reduce chemotactic responses
same,cell recruitment: migration of AERD patient granulocytes towards nasal polyp secretions ex vivo,human granulocytes; pre-treatment of AERD granulocytes,not achieved
same,eicosanoid output of MDM from AERD patients,MDM from AERD patients,no effects
COc1ccc2c(c1)c(CC(=O)O)c(C)n2C(=O)c1ccc(Cl)cc1 [indomethacin],HpbE-triggered COX-2 expression,human MDM; COX inhibitors,reduced
same,suppression of the 5-LOX pathway,human MDM; COX inhibitors,remained largely unaffected
same,"induction of IL-10, IL-1β and PTGES","human MDM; COX inhibitors, CAY10404 10 μM",reduced
"Recombinant Hpb GDH: Recombinant His-tagged Hpb glutamate dehydrogenase (UniProtKB A0A183FP08, SEQ ID NO: 1) expressed in E. coli",PGE2 and IL-10 production by human macrophages,[1]; [2],induce
same,generation of pro-inflammatory cysLTs by human macrophages,[1]; [2],reduce
acriflavine,"HpbE-induced expression of IL-10, IL-1β and COX pathway enzymes",human MDM; pharmacological inhibitor of HIF-1α,attenuated
